Test results from US8871793B2, “Metaxalone cocrystals” (Nuformix Limited, priority 2009, dated 2014).
Like-named read-outs stand apart in the source and are kept apart here.

Assays:
[1] = Pharmacokinetic study, oral capsule administration under fasted conditions in beagle dogs; assay type: in vivo; details: mean, male beagle dogs, equivalent metaxalone dosage of 21 mg/kg; for Cmax: plasma metaxalone by LC-MS/MS; for AUC / Tmax: plasma; for AUC: linear trapezoidal rule
Experimental: The study was designed to compare the pharmacokinetic profiles of the 1:0.5 metaxalone fumaric acid (prepared as described in Example 2.7) and 1:0.5 metaxalone succinic acid cocrystals (prepared as described in Example 4.7) with that of the crystalline metaxalone following oral administration under fasted conditions at 21 mg/kg dose level in beagle dogs. A crossover study was carried out using 5 male beagle dogs with a washout period of 5 days between each treatment. Prior to dosing, the dogs were fasted overnight, weighed and then this weight was used to load capsules with each test compound at an equivalent metaxalone dosage of 21 mg/kg. The capsules were orally administered to the dogs followed by about 10 mL of water. Food was provided 4 hours post-dose to all animals.
Blood samples were collected at pre-dose, 10, 20 and 30 minutes, and 1, 2, 3, 4, 6, 8, 12 and 24 hour post-dose (12 time points) following oral dose administration. Approximately 0.8 ml of whole blood was withdrawn from the cephalic vein and placed in labelled tubes containing K2 EDTA as anticoagulant ([…] of 200 mM K2 EDTA solution per mL of blood). Plasma was separated by centrifuging the whole blood at about 2500 g for 10 minutes at 4° C. Separated plasma was stored below −70° C. until analysis.
A fit for purpose LC-MS/MS method was used for the determination of the metaxalone concentrations in the plasma samples. Pharmacokinetic parameters from individual samples were calculated using the non-compartmental analysis tool of the WinNonlin® software (version 5.2). The area under the plasma concentration curve (AUC) was calculated using the linear trapezoidal rule. Peak plasma concentration (Cmax) and the time taken to reach the peak plasma concentration (Tmax) were the observed values.

[2] = cited from earlier work
[3] = presence of food at the time of drug administration compared to fasted conditions; cited from earlier work

Cmax ([1]; dog, read-out: Cmax) [ng/mL]	AUC ([1]; dog, read-out: AUC) [ng·h/mL]	Tmax ([1]; dog, read-out: Tmax) [h]	Tmax [1] [h]	Cmax [1] [ng/mL]	AUC [1] [ng·h/mL]	Compound	Solubility in 96% ethanol ([2]; 96% ethanol)	Solubility in chloroform ([2]; chloroform)	Solubility in methanol ([2]; methanol)	Solubility in water ([2]; water)	Increase of AUC(inf) by food [3] [%]	Increase of AUC(last) by food [3] [%]	Increase of C(max) by food [3] [%]
1910	2380	0.9				Cc1cc(C)cc(OCC2CNC(=O)O2)c1 (stereo not shown) [Metaxalone, 5-[(3,5-dimethylphenoxy)methyl]-2-oxazolidinone]	soluble	freely soluble	soluble	practically insoluble	115.4	123.5	177.5
			1.1	3635.39	5202.44	Cc1cc(C)cc(OCC2CNC(=O)O2)c1.Cc1cc(C)cc(OCC2CNC(=O)O2)c1.O=C(O)C=CC(=O)O (stereo not shown) [1:0.5 Metaxalone Fumaric Acid Cocrystal]							
			1.8	2629.8	4134.85	Cc1cc(C)cc(OCC2CNC(=O)O2)c1.Cc1cc(C)cc(OCC2CNC(=O)O2)c1.O=C(O)CCC(=O)O (stereo not shown) [1:0.5 Metaxalone Succinic Acid Cocrystal]							
